Assay results from US20230277669A1, “USES OF UROLITHINS” (Amazentis SA, priority 2022, published 2023).

Test system: Pgam5^-/- CD8^+ T cells
Assay: In vitro stimulation of PGAM5-/- CD8+ cells in presence of UA
Format: cell-based, PGAM5^-/- mice
Description: (FIG. 5H) Immunofluorescence of PGAM5 (green) in CD3+ cells after in vitro stimulation with aCD3/aCD28 stimulation beads for six hours. Cells were stained with Mitotracker Red to display mitochondrial colocalisation in the DMSO control as opposed to cytosolic release in the UA sample (m, mitochondrial co-localization; c, cytoplasmic localization) Scale=5 um. (FIG. 5I) In vitro stimulation of PGAM5^-/- CD8+ cells: Percentage of TSCM after 48 h of stimulation with aCD3/aCD28 stimulation beads in the presence of UA. All data depicts mean ± SD, n=4 per group. Statistics shown here depict unpaired, two-sided t-test and Mann-Whitney test (I; (DMSO vs UA25; DMSO vs UA50). *p < 0.05; n.s. not significant. (FIG. 5J) Percentage of CD95+ er 48 h of stimulation with aCD3/aCD28 stimulation beads in the presence of UA. (FIG. 5K) CD95+er 48 h of stimulation with aCD3/aCD28 stimulation beads in the presence of UA.
(FIG. 5L) UA induces PGC-1α expression in stimulated CD8+ cells. PGC-1α MFI at 48 h upon stimulation, as assessed by intracellular staining, is shown (n=3). One of two independent experiments are shown. Data are mean ± SD, statistical analysis was performed by two-sided t-test (p**<0.01). (FIG. 5M) Mitochondrial content of TIL CD8+ cells harvested from APTK-carrying mice, fed UA or control diet as depicted in FIG. 1J. Assessed by Mitotracker Red staining. Data are mean ± SD, *p < 0.05 by two-sided t-test. (FIG. 5N) Mitophagy and subsequent PGAM5 release drive PGC-1α upregulation. PGC-1α expression of CD8+ cells derived from Pink1^-/- KO mice upon 48 h stimulation in vitro in the presence of UA or DMSO control (n=4). Data are mean ± SD, statistical analysis was performed by two-sided t-test. Depicts one of two independent experiments. (FIG. 5O) Mitophagy and subsequent PGAM5 release drive PGC-1 α upregulation. PGC-1α expression of CD8+ cells derived from PGAM5^-^/- mice upon 48 h stimulation in vitro in the presence of UA or DMSO control (n=4). Data are mean ± SD, statistical analysis was performed by two-sided t-test. […] Cells were co-treated with DMSO, UA and an inhibitor of PGC-1α (PGC-1αi) as indicated (n=4). One of two independent experiments are shown. Data are mean ± SD, statistical analysis was performed by two-sided t-test (p**<0.01; ***p <0.001; n.s. not significant).(FIG. 5Q) Urolithin A induces TSCM in human CD8+ cells: Schematic overview. PBMC were isolated from healthy donors, prior to T cell purification and in vitro stimulation via aCD3/aCD28 stimulation beads at the presence of UA or DMSO control. (FIG. 5R) Quantification of human TSCM (n=4). Representative data of one out of five donors with the same result are shown. (FIG. 5S) Quantification of TMRM^loCD8+ human cells 48 h after activation in the presence of UA or DMSO control (n=4). (FIG. 5T) TCF1 expression in human CD8 cells as assessed by flow cytometry (n=4). All data are mean ± SD; statistical analysis was performed by two-sided t-test (*p < 0.05; p**<0.01; p****0.0001).
(FIG. 8B) qPCR analysis of selected Wnt target genes 24 h after stimulation (n=4). Data are mean ± SEM, statistical analysis was performed by two-sided t-test (* p<0.05, ** p<0.01, *** p<0.001). (FIG. 8C) CD8+ cells from PGAM5^-/- mice display an adequate mitophagy response upon UA treatment: Flow cytometry analysis of lysosome formation after six hours of in vitro stimulation via aCD3/aCD28 stimulation beads (n=4). (FIG. 8D) CD8+ cells from PGAM5^-/- mice display an adequate mitophagy response upon UA treatment: Mitotracker Red signal after 24 h in PGAM5^-/- CD8+ stimulated in vitro at the presence of UA or vehicle control. Congruent histograms are shown. Data are mean ± SD, statistical analysis was performed by two-sided t-test (* p<0.05, ** p<0.01, *** p<0.001). (FIG. 8E) Cytosolic fractionation Western blot of Pink1^-/- CD3+ cells 6 h after stimulation with plate-bound aCD3/aC28 antibodies in the presence of Urolithin A or DMSO control. […]

O=c1oc2cc(O)ccc2c2ccc(O)cc12 [Urolithin A]
mitochondrial content (Mitotracker Red) (24 h): reduced mitochondrial content
PGC-1α expression (48 h): failed to enhance
TCF1 (48 h): failed to upregulate
UA-dependent expansion of CD44-CD62L+Sca1hi TSCM cells (48 h): blocked the UA-dependent expansion
memory marker CD95 (48 h): failed to upregulate
lysosome formation (six hours): still enhanced lysosome formation
